Measured values reported in BindingDB's records for doi:10.7270/Q2D798W4 (Burnham Center For Chemical Genomics, 2010).

Molecular target: T1, Alkaline phosphatase, tissue-nonspecific isozyme (Homo sapiens, UniProt P05186)
T1 sequence (P05186 whole entry): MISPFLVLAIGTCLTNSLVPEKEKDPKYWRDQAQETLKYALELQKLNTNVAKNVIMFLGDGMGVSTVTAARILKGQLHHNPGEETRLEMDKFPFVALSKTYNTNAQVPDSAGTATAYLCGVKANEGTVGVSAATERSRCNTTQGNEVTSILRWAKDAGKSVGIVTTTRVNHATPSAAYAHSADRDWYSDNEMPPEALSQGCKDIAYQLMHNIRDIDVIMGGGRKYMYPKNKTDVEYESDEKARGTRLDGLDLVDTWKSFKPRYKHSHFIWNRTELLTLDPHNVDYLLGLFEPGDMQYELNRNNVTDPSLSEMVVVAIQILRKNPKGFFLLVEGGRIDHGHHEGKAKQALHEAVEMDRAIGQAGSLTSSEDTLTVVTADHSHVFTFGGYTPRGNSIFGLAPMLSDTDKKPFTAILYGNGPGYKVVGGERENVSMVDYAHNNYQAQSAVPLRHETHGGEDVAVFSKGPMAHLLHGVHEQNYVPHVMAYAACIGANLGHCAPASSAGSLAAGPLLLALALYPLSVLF
Assay: inhibition of tissue-nonspecific alkaline phosphatase – biochemical, dose response (AID 488882)

Point of comparison: `C=c1[nH]n(Cc2ccccc2)c(=O)c1=Cc1ccc(N(C)C)cc1` [(4Z)-4-[[4-(dimethylamino)phenyl]methylidene]-5-methyl-2-(phenylmethyl)-3-pyrazolone], IC50 46.7 µM. Against it:
- Cc1c(C(=O)NN=Cc2ccc(O)cc2O)[nH][nH]c1=O — 6.4-fold lower, 7.32 µM
- CC(N=Nc1ccccc1[N+](=O)[O-])c1ccc([N+](=O)[O-])cc1 (stereo unspecified) — higher, > 100 µM
- CCOC1=CC(=Cc2c(C)[nH]oc2=O)C=C(Br)C1=O [4-[(Z)-(3-bromo-5-ethoxy-4-oxo-1-cyclohexa-2,5-dienylidene)methyl]-3-methyl-2H-isoxazol-5-one] — within 1.5-fold, 38.1 µM
- O=C(Nn1c(O)csc1=S)C(=O)Nn1c(O)csc1=S [SMR000349781] — 3.6-fold lower, 12.8 µM
- O=C(O)[C@H]1O[C@@H](Oc2c(-c3ccc(O)c(O)c3)oc3cc(O)cc(=O)c-3c2O)[C@H](O)[C@@H](O)[C@@H]1O [quercetin glucuronide] — higher, > 100 µM
